Measurements published in PMC9365693 (Nature, 2022).
Values joined by “and” are separate entries in the source; they are usually repeats but may differ in a detail not shown here. Equal values may be shown once. “Also recorded” adds a separate entry of the source. Read-outs that look alike come from different tables or passages of the source.

Columns and labels:
[1] = Confocal microscopy of GUVs doped with Atto 550-labelled lipid II; settings: DOPC GUVs with 0.1 mol% Atto 550-lipid II, 1 μM teixobactin, 3 h; biological triplicates
Procedure: We used a self-assembled GUV cell, aligned with two titanium electrodes in a closed Teflon chamber (volume = 500 μl). Of 0.5 mM DOPC doped with Atto 550-labelled lipid II (0.1 mol%), 1 μl was brushed on the titanium electrodes. The GUV cell was dried under vacuum. Next, the chamber was filled with 350 μl 0.1 M sucrose solution, the electrodes dipped in and connected to a power supply of a sine wave (2.5 V; 10 Hz; 90 min). Each microscopy slide (m-slide 8 well, Ibidi) was incubated with 350 μl BSA solution (1 mg ml^−1) for 1 h. To detach the GUVs, the power supply was changed to square wave (2 V; 2 Hz; 15 min). The slides were washed once with water and 0.1 M glucose solution. The slides were immersed in 300 μl of 0.1 M glucose solution to which 50 μl of GUVs was added. […] GUVs were imaged using Zeiss LSM 880 with ×63/1.2 NA glycerol and ×100/1.2 NA oil objective lenses. The Atto 550 label appeared red upon excitation by the 560-nm laser. The brightfield was used for detection and location of the GUVs and to observe their shape. Zeiss Zen Black software was used for the analysis of the images.

[2] = HS-AFM control experiments (membrane height; bilayers without lipid II); set-up: membrane height: unit not given here; settings: for membrane height: source data Ext. Data Fig. 6, DOPC + 1% lipid II, after 30 mins incubation with 800 nM
Procedure: (§1) The HS-AFM images were acquired in amplitude modulation tapping mode in liquid using a high-speed atomic force microscope (RIBM). Short cantilevers (approximately 7 μm) with a nominal spring constant of 0.15 N m^−1 were used (USC-F1.2-k0.15, NanoWorld). A minimal imaging force was applied by using a small set-point amplitude of 0.8 nm (for a 1 nm free amplitude). […] The lipid bilayer was obtained by incubating LUVs containing DOPC and lipid II (prepared as mentioned above) on top of a freshly cleaved mica for 20–30 min. […] Imaging was started on the lipid bilayer surface in recording buffer. […] Images were primarily processed using built-in scripts (RIBM) in Igor Pro (Wavemetrics) and analysed using ImageJ software. The images or videos were corrected minimally for tilt, drift and contrast. […] Image acquisition rate varies from 0.5 frames per second to 2 frames per seconds (see Fig. 2, Extended Data Figs. 5, 6, or legends of Supplementary Videos 1 and 2), and the line rate varies from 150 lines per second to 400 lines per second. […] Stated errors are standard deviation.
Extended Data Fig. 6 HS-AFM control experiments. […] Source data

[3] = tested on: Staphylococcus simulans; test: DiSC membrane depolarization (ion leakage) assay, S. simulans; format: cell-based; settings: DiSC-2 probe, Gram-positive bacteria (Fig. 4h and Extended Data Fig. 10b,c), 20 °C, pH 7.2, 2 min before and 6 min after antibiotic; triplicates
Procedure: (§2) The bacterial cultures were grown overnight at 30 °C in TSB media for S. simulans and at 37 °C in LB medium for Bacillus subtilis. Secondary cultures were grown for 3 h until OD600 = 0.5 was reached. The bacterial cells were then centrifuged at 1,500g for 10 min at 4 °C and washed twice with 10 ml of buffer (10 mM Tris, 100 mM NaCl, 1 mM MgCl2 and 0.5% glucose, pH 7.2). The bacterial cells were resuspended to an OD600 = 10 in the buffer and used for the experiment. […] For the assay, 1 μl of the bacterial suspension was added to 1 ml of buffer. For the ion leakage assays, 1 μl of the DiSC-2 probe from a 1 mM stock was added to the cuvette and the fluorescence was measured between a wavelength of 650 nm and 670 nm (bandwidth of […]) for 2 min before the addition of the antibiotic and 6 min after. For the Sytox green leakage assays, 1 μl of the Sytox green probe from a 0.25 mM stock was added to the cuvette and the fluorescence was measured between a wavelength of 500 nm and 520 nm (bandwidth of […]) for 2 min before the addition of the antibiotic and 6 min after. All experiments were performed in triplicates.

[4] = HS-AFM of teixobactin–lipid II fibrils on supported lipid bilayer
Procedure: as §1

[5] = tested on: B. subtilis; test: MIC, B. subtilis (given with permeabilization assay concentrations); format: cell-based, Bacillus subtilis
Procedure: as §2

[6] = Pyrene-labelled lipid II excimer fluorescence (oligomerization); settings: DOPC LUVs with 0.5 mol% pyrene-lipid II, 10 mM Tris-Cl 100 mM NaCl pH 8.0, 20 °C
[7] = tested on: S. simulans; test: MIC, S. simulans (given with permeabilization assay concentrations); format: cell-based; settings: S. simulans
[8] = for interaction with lipid II moieties (in words): ssNMR, DOPC liposomes with 4 mol% lysine-lipid II, pH 7.2
Procedure: Multi-lamellar vesicles of DOPC doped with 4 mol% lysine-lipid II in buffer (40 mM Na2PO4 and 25 mM NaCl, pH 7.2) were collected by centrifugation (60,000g) and loaded into ssNMR rotors. […] For 1.3-mm rotors, samples contained 200 nmol of antibiotic for unlabelled lipid II.
^1H-detected ssNMR experiments were performed at 60 kHz magic angle spinning (MAS) using magnetic fields of 700 and 950 MHz (^1H frequency). […] T1rho trajectories were fit to single exponentials. 2D CC experiments were acquired with PARISxy[33],[53] recoupling (m = 1) at 950 MHz magnetic field and 18 kHz MAS. A 2D CαN experiment was acquired at 700 MHz, 12 kHz MAS and 5 ms N to C cross-polarization transfer time. […] The scalar TOBSY[35] experiment was acquired at 700 MHz using 8 kHz MAS with 6 ms CC mixing time. The mobility edited H(H)C experiment[25] was measured at 700 MHz with 16.5 kHz MAS at a temperature of 300 K using a T2 relaxation filter of 2.5 ms. 1D MAS ^31P experiments were acquired at 500 MHz magnetic field and 12 kHz MAS. 2D HP experiments were acquired at 800 MHz and 60 kHz MAS using 1 and 2 ms ^1H to ^31P cross-polarization contact time. Static ^31P ssNMR experiments were acquired at 500 MHz magnetic field without sample spinning.

[9] = Mobility-edited H(H)C ssNMR: membrane topology of lipid II-bound teixobactin; settings: 300 K, T2 filter 2.5 ms
Source text: (§3) T1rho trajectories were fit to single exponentials.
Extended Data Fig. 8 The membrane topology of the complex. a) and b) show mobility-edited (‘T2-filtered’) ^1H(^1H)^13C ssNMR experiments[37] of ^13C,^15N-teixobactin bound to Lipid II. […] For each residue, peak areas were integrated using Topspin 4.06. Signals that were used for the integration are annotated. e) Membrane topology visualized with the ssNMR structure. Hydrophilic (in blue) and hydrophobic (brown) residues are sharply separated above and below the β-sheet, respectively. Note that the N-terminal Phe1 at the rim of the β-sheet has higher water accessibility, potentially because of fraying and mobility effects. f) Normalized contacts to water and lipid-tails, back-calculated over the MD simulation based on our ssNMR structure. g) Membrane topology using a different structure of the calculated ssNMR ensemble. As shown in Extended Data Fig. 9a, the despi-cycle is plastic and can point up towards the water phase, bringing End10 well-above the membrane-plane. Source data

[10] = tested on: Gram-positive pathogens; settings: cited from earlier work
Procedure: Antibiotics that use novel mechanisms are needed to combat antimicrobial resistance[1]–[3]. […] Here we unravel the mechanism of teixobactin at the atomic level using a combination of solid-state NMR, microscopy, in vivo assays and molecular dynamics simulations. […] (Fig. 4h and Extended Data Fig. 10b,c).

[11] = 15N T1rho ssNMR relaxation of lipid II-bound teixobactin; settings: 60 kHz MAS, in membranes
Source text: as §3

In the case of teixobactin, the “GUV oligomerization and membrane perturbation (in words)” value [1] is reported as “formation of micron-sized teixobactin–lipid II oligomers; also recorded: pronounced concave membrane perturbations at the oligomerization sites”, the “HS-AFM control result (in words)” value ([2]; membrane height at positions without fibrils, 30 min after teixobactin) is reported as “membrane height at positions without fibrils remains unaltered” and the membrane height ([2]; individual measurement, one line each) is reported as 4.81 and 4.99 and 5.22 and 4.65 and 4.79 and 5.05 and 5.1 and 4.77 and 4.67 and 5.01 and 4.5 and 4.97 and 4.95 and 5 and 4.87 and 4.68 and 4.96 and 4.63 and 4.88 and 4.89 and 4.9 and 5.12 and 4.8. For the same substance, the membrane height ([2]; mean) was 4.873, the “decrease in membrane potential / depolarization (in words)” value [3] was “sharp decrease in the membrane potential” and the “depth of fibrillar sheets below the membrane surface (membrane thinning)” value ([4]; 50 min after 800 nM teixobactin) was “approximately 0.5 nm”. The “height of fibrils on the membrane surface” value ([4]; DOPC bilayer with lipid II, 10 mM Tris-Cl 100 mM NaCl pH 8.0, error is standard deviation) was 0.8 ± 0.1 nm, the “peak-to-peak distance between fibrils in sheets” value ([4]; after the fibrils have descended into the surface) was ~ 8 nm and the “formation of fibrils (in words)” value ([4]; lipid II-doped bilayer) was “Fibrils were solely observed in the presence of both teixobactin and lipid II; also recorded: fibrils solely form in the presence of both teixobactin and Lipid II”. For the same substance, the “concentration stated as 10× MIC” value [5] was 0.2 µM, the “oligomerization by pyrene-tagged lipid II (in words)” value [6] was “with the increase in teixobactin concentration there is a relative decrease in the monomer signal followed by a respective increase in the excimer signal; also recorded: oligomers form immediately after the addition of teixobactin” and the “concentration stated as 1× MIC” value [7] was 0.5 µM. The “number of interfacial End10–MurNAc ssNMR contacts” value ([8]; 2D 13C13C PARISxy, 13C,15N-teixobactin and 13C,15N-lipid II in DOPC liposomes) was 11, the “interaction with lipid II moieties (in words)” value ([8]; listed as Teixobactin) was “did not bind to the pentapeptide of lipid II” and the “interaction with lipid II moieties (in words)” value ([8]; listed as natural teixobactin) was “tight and specific interactions”. The “membrane topology (in words)” value [9] was “localizes at the water–membrane interface with the hydrophobic residues Ile2, Ile5 and Ile6 partitioned in the bilayer”, the “antibacterial activity (in words)” value ([10]; MRSA, S. pneumoniae, vancomycin-resistant Enterococci) was “broad activity against multidrug-resistant Gram-positive pathogens” and the “bacterial killing compared with vancomycin (in words)” value [10] was “more effective in killing bacteria than vancomycin”. For the same substance, the “resistance (in words)” value [10] was “lack of resistance” and the “overall dynamics in the complex (in words)” value [11] was “The overall dynamics of the molecule is very slow”.
